Each structure is given as a SMILES string. Where “and” joins values, the source holds several entries; their conditions need not be identical. Equal values may be shown once. Read-outs that look alike come from different tables or passages of the source. Peptide text beside a SMILES is read from it.

Data set [1] relates to control mice. Kind of data set: Increasing single IP doses of KYC in control mice. Conditions: unpublished, personal observations. In kind it is in vivo, mouse.
Data set [2] concerns neonatal rat pups. In kind it is in vivo. To be noted: for weight gain: P3-P10. The protocol:
Data from lung sections and immunoblots from the samples were analyzed for statistical differences using GraphPad Prism version 8.4.3, for Windows (GraphPad Software, La Jolla, Calif.). Quantitative morphometric and cell count data are expressed as mean±SD scatter-plots adjacent to the representative images. Student t-test, or Mann-Whitney U test, was used for comparing two groups wherever appropriate. One-way analysis of variance with post-hoc Student-Newman-Keuls test was used when more than two groups of data were analyzed. Significant differences between groups were determined by either unpaired student's t-test or Mann-Whitney U test, depending on the distribution. Weight gain and survival data were analyzed using MedCalc Statistical Software version 15.2.1 (MedCalc Software bvba, Ostend, Belgium; http://www.medcalc.org). Kaplan-Meier survival curves were plotted using Kaplan-Meier tables constructed in GraphPad Prism. A p-value<0.05 was considered statistically significant.

The mark [3] stands for this setting: normoxic pups, KYC vs untreated.

Regarding `CC(=O)N[C@@H](CCCCN)C(=O)N[C@@H](Cc1ccc(O)cc1)C(=O)N[C@@H](CS)C(N)=O` [KYC, N-acetyl lysyltyrosylcysteine amide] (Ac-Lys-Tyr-Cys-NH2), the “single dose at which observable adverse effects were induced” value in data set [1] was 800 mg/kg. The “survival rate at P10” value in data set [2] (hyperoxic (>90% O2) neonatal rat pups, KYC 5 mg/kg twice per day i.p., PBS group 82.8%) is 97.3% and ~98%. For the same compound, in data set [2] (hyperoxic pups, KYC vs PBS), the “survival to P10 (survival analysis)” value is “higher probability of surviving to P10” and the weight gain entry was “time-dependent changes in weight gain were not significantly different”. In data set [2] (setting [3]), the “survival to P10” value is recorded as “no significant differences in survival” and the weight gain result is “gained more weight than untreated normoxic pups”.

The values are drawn from patent US20220409692A1, “Systems Chemico-Pharmacology Drugs and Methods of Use” (The Medical College of Wisconsin, priority 2019, published 2022).
